Type in all cases: functional
Assay [1] deals with Aspergillus flavus. As to the kind of experiment: Antifungal activity against Aspergillus flavus assessed as inhibition of fungal growth.
Assay [2] concerns Candida albicans. As to the kind of experiment: Antifungal activity against Candida albicans assessed as inhibition of fungal growth.
For assay [3], the system named is Escherichia coli. As to the kind of experiment: Antibacterial activity against Escherichia coli assessed as inhibition of bacterial growth.
Assay [4] has as its system Klebsiella pneumoniae. In words: Antibacterial activity against Klebsiella pneumoniae assessed as inhibition of bacterial growth.
In assay [5] the test system is Staphylococcus aureus. In words: Antibacterial activity against Staphylococcus aureus assessed as inhibition of bacterial growth.
For assay [6], the system named is Rhizopus. In words: Antifungal activity against Rhizopus assessed as inhibition of fungal growth.
Assay [7] has as its system Proteus vulgaris. As to the kind of experiment: Antibacterial activity against Proteus vulgaris NCIM 2027 assessed as reduction in bacterial growth incubated for 18 to 24 hrs by broth microdilution method. As to conditions: time 18-24 hrs. In general terms: Broth dilution looks for growth in wells or tubes with falling amounts of substance.
Assay [8] relates to Escherichia coli. In words: Antibacterial activity against Escherichia coli NCIM 2065 assessed as reduction in bacterial growth incubated for 18 to 24 hrs by broth microdilution method. As to conditions: time 18-24 hrs.
The test system of assay [9] is Pseudomonas aeruginosa. In words: Antibacterial activity against Pseudomonas aeruginosa NCIM 2036 assessed as reduction in bacterial growth incubated for 18 to 24 hrs by broth microdilution method. The note with it: time 18-24 hrs.
Assay [10] has as its system Bacillus subtilis. In words: Antibacterial activity against Bacillus subtilis NCIM 2063 assessed as reduction in bacterial growth incubated for 18 to 24 hrs by broth microdilution method. The note with it: time 18-24 hrs.
The test system of assay [11] is Bacillus cereus. As to the kind of experiment: Antibacterial activity against Bacillus cereus NCIM 2156 assessed as reduction in bacterial growth incubated for 18 to 24 hrs by broth microdilution method. The note with it: time 18-24 hrs.
The test system of assay [12] is Staphylococcus aureus. In words: Antibacterial activity against Staphylococcus aureus NCIM 2079 assessed as reduction in bacterial growth incubated for 18 to 24 hrs by broth microdilution method. As to conditions: time 18-24 hrs.
Assay [13] relates to Proteus mirabilis. In words: Antibacterial activity against Proteus mirabilis NCIM 2241 assessed as reduction in bacterial growth incubated for 18 to 24 hrs by broth microdilution method. The note with it: time 18-24 hrs.
For assay [14], the system named is Staphylococcus aureus. In words: Antibacterial activity against Staphylococcus aureus.
Assay [15] deals with Bacillus subtilis. As to the kind of experiment: Antibacterial activity against Bacillus subtilis assessed as reduction in bacterial growth.

≈ marks a conversion by molar mass, not a printed value.

`COc1cc(N2CCC(c3n[nH]c(=S)n3-c3ccc(Cl)cc3)CC2)ccc1Cl`: the minimal inhibitory concentration (MIC) was found to be 8 µg/mL (≈ 18.4 µM) in assay [1]; 4 µg/mL (≈ 9.19 µM) in [2]; 4 µg/mL (≈ 9.19 µM) in assay [3]; 8 µg/mL (≈ 18.4 µM) in assay [4]; 8 µg/mL (≈ 18.4 µM) in assay [5]; 8 µg/mL (≈ 18.4 µM) in assay [6].

On to `NC(=O)NCn1nc(NCCCNc2ccnc3cc(Cl)ccc23)n(N)c1=S`, for which the MIC in [7] was found to be 12.5 µg/mL (≈ 29.6 µM); in assay [8], 3.12 µg/mL (≈ 7.41 µM); in [9] it was 50 µg/mL (≈ 119 µM); in assay [10] it was 12.5 µg/mL (≈ 29.6 µM); in [11], 3.12 µg/mL (≈ 7.41 µM); in assay [12], 6.25 µg/mL (≈ 14.8 µM). In [13], the MIC is 12.5 µg/mL (≈ 29.6 µM).

`COc1cc(N2CCC(c3n[nH]c(=S)n3-c3cc(Cl)cc(Cl)c3)CC2)ccc1Cl`: the MIC in assay [1] came to 32 µg/mL (≈ 68.1 µM); in assay [2] it was 16 µg/mL (≈ 34.1 µM); in assay [3], 8 µg/mL (≈ 17 µM); in assay [4] it was 8 µg/mL (≈ 17 µM); in assay [5], 16 µg/mL (≈ 34.1 µM); in assay [6], 32 µg/mL (≈ 68.1 µM).

Consider `CC(=O)NCn1nc(NCCCNc2ccnc3cc(Cl)ccc23)n(N)c1=S`, for which the minimal inhibitory concentration (MIC) in assay [7] is 12.5 µg/mL (≈ 29.7 µM); in [8], 12.5 µg/mL (≈ 29.7 µM); in assay [9], 25 µg/mL (≈ 59.4 µM); in [10] it was 12.5 µg/mL (≈ 29.7 µM); in assay [11], 6.25 µg/mL (≈ 14.8 µM); in assay [12], 6.25 µg/mL (≈ 14.8 µM). In addition, in assay [13], the minimal inhibitory concentration (MIC) stood at 12.5 µg/mL (≈ 29.7 µM).

On to `Cc1ccc(NC(=O)Cn2cc(COc3ccc(C(=O)/C=C/c4ccccc4)cc3)nn2)cc1`, for which the minimum inhibitory concentration (MIC) in [14] and in assay [15] was 13 µM (≈ 5.88 µg/mL) each time.

In the case of `COc1ccc(NC(=O)NCc2cn(CC(=O)Nc3ccc(C(F)(F)F)cc3)nn2)cc1`, the MIC in assay [14] is 27 µM (≈ 12.1 µg/mL).

The term MIC denotes the least concentration at which growth counts as inhibited.

For the origin of these results see ChEMBL document CHEMBL5634077, “Recent advances in 1,2,3- and 1,2,4-triazole hybrids as antimicrobials and their SAR: A critical review” (2023).
